Consider one molecule from patent US20110015067A1, “Herbicidal Compositions Comprising Pyroxasulfone” (BASF SE, priority 2008, published 2011).

Where two headings read alike, the source gives them in different places.

Common to all, as to test: post-emergence greenhouse test
Common to all, as to assay type: in vivo

For experiment [1], the system named is COMBE (Commelina benghalensis). The note with it: read-out: observed % activity; for inhibition at 6.25 g/ha: Table 18, use rate 6.25 g ai/ha; for inhibition at 12.5 g/ha: Table 20, use rate 12.5 g ai/ha. The method, boiled down: (§1)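 Plants grown to 3–20 cm, then sprayed post-emergence with herbicides, solo or mixed, with or without safener, in water as carrier. Damage scored visually 0–100% versus untreated controls at 8 and/or 20 days after treatment.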

Experiment [2] concerns ECHCG (Echinochloa crus-galli). The note with it: use rate 6.25 g ai/ha, read-out: observed % activity. The method, boiled down:
as §1

The subject of experiment [3] is LOLMU (Lolium multiflorum). Conditions: 50 g ai/ha. Put shortly: as §1
For another experiment, the system named is SETVI (Setaria viridis). Conditions: use rate 6.25 g ai/ha, read-out: observed % activity. Put shortly:
as §1

Consider `Cn1nc(C(F)(F)F)c(CS(=O)(=O)C2=NOC(C)(C)C2)c1OC(F)F` [pyroxasulfone, 3-[5-(difluoromethoxy)-1-methyl-3-(trifluoromethyl)pyrazol-4-ylmethylsulfonyl]-4,5-dihydro-5,5-dimethyl-1,2-oxazole], for which the inhibition at 6.25 g/ha was 20% in experiment [1] (192 h, 8 DAT); 20% in experiment [1] (480 h, 20 DAT); 30% in experiment [2] (192 h, 8 DAT); 80% in experiment [2] (480 h, 20 DAT); 40% in the experiment with SETVI (Setaria viridis) (192 h, 8 DAT); 75% in the experiment with SETVI (Setaria viridis) (480 h, 20 DAT). Besides, the inhibition at 12.5 g/ha is 30% in experiment [1] (192 h, 8 DAT) and 40% in experiment [1] (480 h, 20 DAT). Moreover, the “observed activity in % destruction” value in experiment [3] (8 DAT) is recorded as 60%; in experiment [3] (20 DAT) it was 80%.
